{
  "source": "patent US20240024405A1",
  "about": "“COMPOSITIONS OF CASPASE INHIBITORS AND METHODS OF USE THEREOF” (priority 2022, published 2024)",
  "key": {"caspase-6 [1]": {"system": "caspase-6", "format": "cell-based"}, "MERS-CoV MA": {"system": "MERS-CoV MA", "parameters": "species or system mice", "settings": "in vivo"}, "HCoV-229E": {"system": "HCoV-229E", "format": "cell-based"}, "MERS-CoV [2]": {"system": "MERS-CoV"}, "rMERS-CoV/TKKA": {"system": "rMERS-CoV/TKKA", "format": "cell-based, MERS-CoV"}, "enterovirus A71": {"system": "enterovirus A71", "format": "cell-based"}, "influenza virus (H1N1)": {"system": "influenza virus (H1N1)", "format": "cell-based"}, "MERS-CoV [3]": {"system": "MERS-CoV", "format": "cell-based, human"}, "MERS-CoV [4]": {"system": "MERS-CoV", "format": "cell-based"}, "SARS-CoV-2 [5]": {"system": "SARS-CoV-2", "parameters": "species or system Golden Syrian hamsters", "settings": "in vivo"}, "MERS-CoV [6]": {"system": "MERS-CoV", "format": "cell-based", "remark": "listed apart in the source"}, "MERS-CoV [7]": {"system": "MERS-CoV", "format": "cell-based, human", "remark": "listed apart in the source"}, "MERS-CoV [8]": {"system": "MERS-CoV", "format": "cell-based", "remark": "listed apart in the source"}, "MERS-CoV [9]": {"system": "MERS-CoV", "format": "cell-based", "remark": "listed apart in the source"}, "SARS-CoV-2 [10]": {"system": "SARS-CoV-2"}, "SARS-CoV-1": {"system": "SARS-CoV-1", "format": "cell-based"}, "caspase-6 [11]": {"target": "T1, caspase-6 (Homo sapiens, UniProt P55212)", "T1 construct": "expressed in transfected cells", "T1 sequence (P55212 24-179 limits assumed)": "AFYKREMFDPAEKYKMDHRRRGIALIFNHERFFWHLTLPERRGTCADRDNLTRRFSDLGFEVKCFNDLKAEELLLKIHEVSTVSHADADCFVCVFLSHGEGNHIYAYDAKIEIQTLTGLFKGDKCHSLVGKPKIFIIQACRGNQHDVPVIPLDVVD", "T1 sequence (P55212 194-293 limits assumed)": "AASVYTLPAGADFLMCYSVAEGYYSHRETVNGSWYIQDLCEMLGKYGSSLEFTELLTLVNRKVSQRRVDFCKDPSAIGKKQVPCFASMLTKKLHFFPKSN", "format": "cell-based"}, "rMERS-CoV/TKKD": {"system": "rMERS-CoV/TKKD", "format": "cell-based, MERS-CoV"}},
  "note": "Where a SMILES comes first, the peptide text is derived from it. The star is where a group is joined. Cbz = O=C(OCc1ccccc1)*; CH2F = FC*",
  "data": [
    {"molecule": "CN[C@@H]1C[C@H]2O[C@@](C)([C@@H]1OC)n1c3ccccc3c3c4c(c5c6ccccc6n2c5c31)C(=O)NC4", "note": "[Staurosporine]", "values": [
      {"measurement": "Caspase-6 activity in cell lysate", "setting": "caspase-6 [1]", "result": "activated"}
    ]},
    {"molecule": "CC[C@H](C)[C@H](NC(=O)[C@H](CCC(=O)OC)NC(=O)[C@@H](NC(=O)OCc1ccccc1)C(C)C)C(=O)N[C@@H](CC(=O)OC)C(=O)CF", "note": "[z-VEID-fmk, Z-Val-Glu(OMe)-Ile-Asp(OMe)-CH2F] (Cbz-VE(OMe)ID(OMe)-CH2F)", "values": [
      {"measurement": "Expression of pro-inflammatory cytokines and chemokines in mouse lungs", "setting": "MERS-CoV MA", "result": "significantly attenuated"},
      {"measurement": "Body weight loss of infected mice", "setting": "MERS-CoV MA; mouse", "result": "largely inhibited"},
      {"measurement": "MERS-CoV MA replication in the lungs", "setting": "MERS-CoV MA; mouse", "result": "effectively reduced"},
      {"measurement": "Survival of infected hDPP4 KI mice", "setting": "MERS-CoV MA; mouse", "result": 80, "unit": "%"},
      {"measurement": "HCoV-229E replication (N gene copy)", "setting": "HCoV-229E", "result": "attenuated"},
      {"measurement": "IC50", "setting": "MERS-CoV [2]", "result": 21.1, "unit": "µM"},
      {"measurement": "Inhibitory effect on MERS-CoV replication across cell types", "setting": "MERS-CoV [2]", "result": "conserved across different cell types exceptVeroE6 cells"},
      {"measurement": "MERS-CoV replication (N gene copy)", "setting": "MERS-CoV [2]", "result": "attenuated"},
      {"measurement": "Replication of rMERS-CoV/TKKA", "setting": "rMERS-CoV/TKKA", "result": "not limited"},
      {"measurement": "Enterovirus A71 replication (VP1 gene copy)", "setting": "enterovirus A71", "result": "did not impact"},
      {"measurement": "H1N1 replication (M gene copy)", "setting": "influenza virus (H1N1)", "result": "did not impact"},
      {"measurement": "MERS-CoV replication in human intestinal organoids", "setting": "MERS-CoV [3]", "result": "inhibited"},
      {"measurement": "Inhibition of production of infectious virus particles in human intestinal organoids", "setting": "MERS-CoV [3]; 100 µM", "result": "approximately 80%"},
      {"measurement": "Viral inhibitory effect in stable caspase-6 knockdown cells", "setting": "MERS-CoV [4]", "result": "largely diminished"},
      {"measurement": "Alveolar space immune cells infiltration", "setting": "SARS-CoV-2 [5]; hamster", "result": "dramatically inhibited"},
      {"measurement": "Body weight of infected hamsters", "setting": "SARS-CoV-2 [5]; hamster", "result": "significant improvements"},
      {"measurement": "Lung damage by histopathological scores", "setting": "SARS-CoV-2 [5]; hamster", "result": "significantly ameliorated"},
      {"measurement": "Tissue damage: bronchiolitis, alveolitis and vasculitis", "setting": "SARS-CoV-2 [5]; hamster", "result": "significantly ameliorated"},
      {"measurement": "Expression of virus-induced pro-inflammatory cytokines and chemokines in hamster lungs", "setting": "SARS-CoV-2 [5]", "result": "ameliorated"},
      {"measurement": "Hamster lung pathology (H&E)", "setting": "SARS-CoV-2 [5]", "result": "markedly improved"},
      {"measurement": "Number of viral N-protein positive cells in hamster lungs", "setting": "SARS-CoV-2 [5]", "result": "reduced"},
      {"measurement": "SARS-CoV-2 replication in the hamster lungs", "setting": "SARS-CoV-2 [5]", "result": "significantly reduced"},
      {"measurement": "MERS-CoV replication among specific caspase inhibitors (MERS-CoV N-positive cells)", "setting": "MERS-CoV [6]", "result": "most dramatically limited"},
      {"measurement": "MERS-CoV nucleocapsid (N) protein and N gene expression in human lung tissues", "setting": "MERS-CoV [7]", "result": "significantly reduced"},
      {"measurement": "Antiviral effect of z-VEID-fmk when the IFN pathway is non-functional", "setting": "MERS-CoV [8]", "result": "diminished"},
      {"measurement": "Virus replication when inhibitor added during MERS-CoV inoculation", "setting": "MERS-CoV [9]", "result": "did not reduce"},
      {"measurement": "HCoV-OC43 replication (N gene copy)", "setting": "HCoV-OC43", "result": "attenuated"},
      {"measurement": "IC50", "setting": "HCoV-OC43", "result": 30.6, "unit": "µM"},
      {"measurement": "SARS-CoV-2 replication (RdRp gene copy)", "setting": "SARS-CoV-2 [10]", "result": "attenuated"},
      {"measurement": "SARS-CoV-1 replication (N gene copy)", "setting": "SARS-CoV-1", "result": "attenuated"},
      {"measurement": "Cleavage of MERS-CoV N by co-expressed caspase-6", "setting": "caspase-6 [11]", "result": "completely abolished"},
      {"measurement": "N cleavage in MERS-CoV-infected cells", "setting": "caspase-6 [11]", "result": "similarly inhibited"},
      {"measurement": "Replication of rMERS-CoV/TKKD", "setting": "rMERS-CoV/TKKD", "result": "remained effective"}
    ]},
    {"molecule": "z-VAD-fmk", "values": [
      {"measurement": "HCoV-229E replication with pan-caspase inhibitor", "setting": "HCoV-229E", "result": "similarly limited"},
      {"measurement": "MERS-CoV replication with pan-caspase inhibitor", "setting": "MERS-CoV [2]", "result": "significantly limited"},
      {"measurement": "HCoV-OC43 replication with pan-caspase inhibitor", "setting": "HCoV-OC43", "result": "similarly limited"},
      {"measurement": "SARS-CoV-2 replication with pan-caspase inhibitor", "setting": "SARS-CoV-2 [10]", "result": "similarly limited"},
      {"measurement": "SARS-CoV-1 replication with pan-caspase inhibitor", "setting": "SARS-CoV-1", "result": "similarly limited"}
    ]}
  ]
}
